# Measurements: US6737383B1, “Herbicidal oxadiazolidines” (priority 1999, dated 2004)
# How the values were obtained:
# bedstraw = test: Test B pre/postemergence bedstraw; assay type: in vivo, Galium aparine; details: scale of 0 to 10 where 0 is no effect and 10 is complete control
# Procedure, shortened: (§1)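 Herbicidal effect was estimated by eye on a ten-point control scale after plants spent twelve to sixteen days in a greenhouse following soil or foliar treatment. Foliar sprays targeted plants at one to four leaves; all doses were formulated in a non-phytotoxic solvent with surfactant.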
# blackgrass = test: Test B pre/postemergence blackgrass; assay type: in vivo, Alopecurus myosuroides; details: scale of 0 to 10 where 0 is no effect and 10 is complete control
# Procedure, shortened: as §1
# surinam grass = test: Test B pre/postemergence surinam grass; assay type: in vivo, Brachiaria decumbens; details: scale of 0 to 10 where 0 is no effect and 10 is complete control
# Procedure, shortened: as §1
# cocklebur = test: Test B pre/postemergence cocklebur; assay type: in vivo, Xanthium strumarium
# Procedure, shortened: as §1
# corn = test: Test B pre/postemergence corn; assay type: in vivo, Zea mays
# Procedure, shortened: as §1
# morningglory = test: Test B pre/postemergence morningglory; assay type: in vivo, Ipomoea hederacea
# Procedure, shortened: as §1
# pigweed = test: Test B pre/postemergence pigweed; assay type: in vivo, Amaranthus retroflexus; details: scale of 0 to 10 where 0 is no effect and 10 is complete control
# Procedure, shortened: as §1
# rape = test: Test B pre/postemergence rape; assay type: in vivo, Brassica napus; details: scale of 0 to 10 where 0 is no effect and 10 is complete control
# Procedure, shortened: as §1
# velvetleaf = test: Test B pre/postemergence velvetleaf; assay type: in vivo, Abutilon theophrasti
# Procedure, shortened: as §1
# wheat = test: Test B pre/postemergence wheat; assay type: in vivo, Triticum aestivum; details: scale of 0 to 10 where 0 is no effect and 10 is complete control
# Procedure, shortened: as §1
# wild oat = test: Test B pre/postemergence wild oat; assay type: in vivo, Avena fatua; details: scale of 0 to 10 where 0 is no effect and 10 is complete control
# Procedure, shortened: as §1
# purple nutsedge = test: Test B pre/postemergence purple nutsedge; assay type: in vivo, Cyperus rotundus
# Procedure, shortened: as §1
# rice = test: Test B flood test rice; assay type: in vivo, Oryza sativa
# Procedure, shortened: (§2)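 Flood test on plants grown to the 2-leaf stage; treated plants kept in greenhouse twelve to sixteen days, then visually rated against controls on a 0 (no effect) to 10 (complete control) scale.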
# smallflower flatsedge = test: Test B flood test smallflower flatsedge; assay type: in vivo, Cyperus difformis
# Procedure, shortened: as §2
# duck salad = test: Test B flood test duck salad; assay type: in vivo, Heteranthera limosa
# Procedure, shortened: as §2
# bamyardgrass = test: Test B flood test barnyardgrass; assay type: in vivo, Echinochloa crus-galli
# Procedure, shortened: as §2
# [1] = Preemergence, Rate 62 g/ha, scale of 0 to 10 where 0 is no effect and 10 is complete control
# [2] = Preemergence, Rate 250 g/ha, scale of 0 to 10 where 0 is no effect and 10 is complete control
# [3] = Preemergence, Rate 500 g/ha, scale of 0 to 10 where 0 is no effect and 10 is complete control
# [4] = Rate 62 g/ha, Postemergence, scale of 0 to 10 where 0 is no effect and 10 is complete control
# [5] = Rate 125 g/ha, Postemergence, scale of 0 to 10 where 0 is no effect and 10 is complete control
# [6] = Rate 125 g/ha, Preemergence, scale of 0 to 10 where 0 is no effect and 10 is complete control
# [7] = Rate 250 g/ha, Postemergence, scale of 0 to 10 where 0 is no effect and 10 is complete control
# [8] = Rate 500 g/ha, Postemergence, scale 0 to 10, 0 no effect, 10 complete control
# [9] = Rate 62 g/ha, headed Pre-emergence (flood test species), scale 0 to 10 (0 no effect, 10 complete control)
# [10] = Rate 125 g/ha, Pre-emergence, flood test species, scale 0 to 10 where 0 is no effect and 10 is complete control
# [11] = Rate 250 g/ha, Pre-emergence, flood-test species, scale 0 to 10, 0 is no effect, 10 is complete control
# [12] = Rate 500 g/ha, Pre-emergence, flood test species, scale 0 to 10 (0 no effect, 10 complete control)
smiles,measurement,setting,value
Cc1ccccc1-n1c(=O)on(C(=O)N(c2ccc(Oc3ccccc3)cc2)C(C)C)c1=O [Compound 268],Bedstraw plant response rating,"bedstraw; Preemergence, Rate 62 g/ha",0
same,Bedstraw plant response rating,"bedstraw; Preemergence, Rate 250 g/ha",0
same,"Plant response rating, Bedstraw","bedstraw; Preemergence, Rate 500 g/ha",0
same,Bedstraw plant response rating,"bedstraw; Rate 62 g/ha, Postemergence",0
same,Bedstraw plant response rating,"bedstraw; Rate 125 g/ha, Postemergence",0
same,Bedstraw plant response rating,"bedstraw; Rate 125 g/ha, Preemergence",0
same,"Plant response rating, Bedstraw","bedstraw; Rate 250 g/ha, Postemergence",0
same,Blackgrass plant response rating,"blackgrass; Preemergence, Rate 62 g/ha",0
same,Blackgrass plant response rating,"blackgrass; Preemergence, Rate 250 g/ha",0
same,"Plant response rating, Blackgrass","blackgrass; Preemergence, Rate 500 g/ha",0
same,Blackgrass plant response rating,"blackgrass; Rate 62 g/ha, Postemergence",0
same,Blackgrass plant response rating,"blackgrass; Rate 125 g/ha, Postemergence",0
same,Blackgrass plant response rating,"blackgrass; Rate 125 g/ha, Preemergence",0
same,"Plant response rating, Blackgrass","blackgrass; Rate 250 g/ha, Postemergence",0
same,B. signalgrass plant response rating,"surinam grass; Preemergence, Rate 62 g/ha",0
same,B. signalgrass plant response rating,"surinam grass; Preemergence, Rate 250 g/ha",0
same,"Plant response rating, B. signalgrass","surinam grass; Preemergence, Rate 500 g/ha",0
same,B. signalgrass plant response rating,"surinam grass; Rate 62 g/ha, Postemergence",0
same,B. signalgrass plant response rating,"surinam grass; Rate 125 g/ha, Postemergence",0
same,B. signalgrass plant response rating,"surinam grass; Rate 125 g/ha, Preemergence",0
same,"Plant response rating, B. signalgrass","surinam grass; Rate 250 g/ha, Postemergence",0
same,Cocklebur plant response rating,cocklebur; [1],0
same,Cocklebur plant response rating,cocklebur; [2],0
same,"Plant response rating, Cocklebur",cocklebur; [3],0
same,Cocklebur plant response rating,cocklebur; [4],0
same,Cocklebur plant response rating,cocklebur; [5],0
same,Cocklebur plant response rating,cocklebur; [6],0
same,"Plant response rating, Cocklebur",cocklebur; [7],0
same,Cocklebur plant response rating,cocklebur; [8],0
same,Corn plant response rating,corn; [1],0
same,Corn plant response rating,corn; [2],0
same,"Plant response rating, Corn",corn; [3],0
same,Corn plant response rating,corn; [4],0
same,Corn plant response rating,corn; [5],0
same,Corn plant response rating,corn; [6],0
same,"Plant response rating, Corn",corn; [7],0
same,Corn plant response rating,corn; [8],3
same,Morningglory plant response rating,morningglory; [1],0
same,Morningglory plant response rating,morningglory; [2],0
same,"Plant response rating, Morningglory",morningglory; [3],0
same,Morningglory plant response rating,morningglory; [5],2
same,Morningglory plant response rating,morningglory; [6],0
same,"Plant response rating, Morningglory",morningglory; [7],2
same,Morningglory plant response rating,morningglory; [8],7
same,Redroot pigweed plant response rating,"pigweed; Preemergence, Rate 62 g/ha",0
same,Redroot pigweed plant response rating,"pigweed; Preemergence, Rate 250 g/ha",0
same,"Plant response rating, Redroot pigweed","pigweed; Preemergence, Rate 500 g/ha",0
same,Redroot pigweed plant response rating,"pigweed; Rate 125 g/ha, Postemergence",0
same,Redroot pigweed plant response rating,"pigweed; Rate 125 g/ha, Preemergence",0
same,"Plant response rating, Redroot pigweed","pigweed; Rate 250 g/ha, Postemergence",0
same,Rape plant response rating,"rape; Preemergence, Rate 62 g/ha",0
same,Rape plant response rating,"rape; Preemergence, Rate 250 g/ha",0
same,"Plant response rating, Rape","rape; Preemergence, Rate 500 g/ha",0
same,Rape plant response rating,"rape; Rate 125 g/ha, Postemergence",0
same,Rape plant response rating,"rape; Rate 125 g/ha, Preemergence",0
same,"Plant response rating, Rape","rape; Rate 250 g/ha, Postemergence",0
same,Velvetleaf plant response rating,velvetleaf; [1],0
same,Velvetleaf plant response rating,velvetleaf; [2],0
same,"Plant response rating, Velvetleaf",velvetleaf; [3],0
same,Velvetleaf plant response rating,velvetleaf; [5],0
same,Velvetleaf plant response rating,velvetleaf; [6],0
same,"Plant response rating, Velvetleaf",velvetleaf; [7],0
same,Velvetleaf plant response rating,velvetleaf; [8],0
same,Wheat plant response rating,"wheat; Preemergence, Rate 62 g/ha",0
same,Wheat plant response rating,"wheat; Preemergence, Rate 250 g/ha",0
same,"Plant response rating, Wheat","wheat; Preemergence, Rate 500 g/ha",0
same,Wheat plant response rating,"wheat; Rate 125 g/ha, Postemergence",0
same,Wheat plant response rating,"wheat; Rate 125 g/ha, Preemergence",0
same,"Plant response rating, Wheat","wheat; Rate 250 g/ha, Postemergence",0
same,Wild oats plant response rating,"wild oat; Preemergence, Rate 62 g/ha",0
same,Wild oats plant response rating,"wild oat; Preemergence, Rate 250 g/ha",0
same,"Plant response rating, Wild oats","wild oat; Preemergence, Rate 500 g/ha",0
same,Wild oats plant response rating,"wild oat; Rate 125 g/ha, Postemergence",0
same,"Plant response rating, Wild oats","wild oat; Rate 250 g/ha, Postemergence",0
same,Nutsedge plant response rating,purple nutsedge; [1],0
same,Nutsedge plant response rating,purple nutsedge; [2],0
same,Nutsedge plant response rating,purple nutsedge; [5],0
same,Nutsedge plant response rating,purple nutsedge; [6],0
same,"Plant response rating, Nutsedge",purple nutsedge; [7],0
same,Nutsedge plant response rating,purple nutsedge; [8],0
same,Rice plant response rating,rice; [9],0
same,Rice plant response rating,rice; [10],0
same,Rice plant response rating,rice; [11],0
same,Rice plant response rating,rice; [12],0
same,S. Flatsedge plant response rating,smallflower flatsedge; [9],0
same,S. Flatsedge plant response rating,smallflower flatsedge; [10],0
same,S. Flatsedge plant response rating,smallflower flatsedge; [11],0
same,S. Flatsedge plant response rating,smallflower flatsedge; [12],0
same,Ducksalad plant response rating,duck salad; [9],0
same,Ducksalad plant response rating,duck salad; [10],0
same,Ducksalad plant response rating,duck salad; [11],0
same,Ducksalad plant response rating,duck salad; [12],0
same,Barnyardgrass plant response rating,bamyardgrass; [9],0
same,Barnyardgrass plant response rating,bamyardgrass; [10],0
same,Barnyardgrass plant response rating,bamyardgrass; [11],0
same,Barnyardgrass plant response rating,bamyardgrass; [12],0
